In patent US20220282271A1, “HERBICIDE RESISTANT PLANTS AND METHODS OF MAKING AND USING” (OFFICE OF INNOVATION ADVANCEMENT AND COMMERCIALIZATION, priority 2019, published 2022):

Tests used:
Type in all cases: in vivo
Conditions in all cases: 1.0 lb ai/a, applied approximately 3 weeks after emergence, relative to non-treated
Murdannia nudiflora = assay: Weed control screen: doveweed
Experimental: (§1) Herbicides were applied at a spray volume of 280 L/ha with no adjuvant added to any herbicide mixture. Weed control was rated on a 0 to 100 percent phytoxicity scale with 0 being no plant injury/phytotoxicity and 100 being complete plant dessication. Twenty-one weeds were evaluated for response to herbicides (Table 3). The weeds selected were a mixture of weeds common in agronomic and horticultural crops. Herbicide was applied to all species approximately 3 weeks after emergence. Plant phytotoxicity rated as percent control relative to the non-treated.

Solanum carolinense = assay: Weed control screen: Carolina horsenettle
Experimental: as §1

Crotalaria spectabilis = assay: Weed control screen: showy crotalaria
Experimental: as §1

Sorghum halapense = assay: Weed control screen: johnsongrass
Experimental: as §1

Physalis angulata = assay: Weed control screen: cutleaf groundcherry
Experimental: as §1

Ipomoea hederacea = assay: Weed control screen: entireleaf morningglory
Experimental: as §1

Sida spinosa = assay: Weed control screen: prickly sida
Experimental: as §1

Senna obtusifolia = assay: Weed control screen: sicklepod
Experimental: as §1

Abutilon theophrasti = assay: Weed control screen: velvetleaf
Experimental: as §1

Ipomoea lacunosa = assay: Weed control screen: pitted morningglory
Experimental: as §1

Jaquemontia tamnifolia = assay: Weed control screen: smallflower morningglory
Experimental: as §1

Conyza candensis = assay: Weed control screen: glyphosate-resistant horseweed
Experimental: as §1

Ipomoea coccinea = assay: Weed control screen: red morningglory
Experimental: as §1

Amaranthus palmeri = assay: Weed control screen: glyphosate resistant palmer amaranth
Experimental: as §1

Cyperus iria = assay: Weed control screen: rice flatsedge
Experimental: as §1

Amaranthus hybridus = assay: Weed control screen: smooth pigweed
Experimental: as §1

Albizia julibrissin = assay: Weed control screen: silktree
Experimental: as §1

Eleusine indica = assay: Weed control screen: goosegrass
Experimental: as §1

Kyllinga squamulata = assay: Weed control screen: cock's comb kyllinga
Experimental: as §1

Ipomoea quamoclit = assay: Weed control screen: cypressvine morningglory
Experimental: as §1

Sesbania exaltata = assay: Weed control screen: hemp sesbania
Experimental: as §1

SMILES | Percent control (0 to 100) (Murdannia nudiflora) | Percent control (0 to 100) (Solanum carolinense) | Percent control (0 to 100) (Crotalaria spectabilis) | Percent control (0 to 100) (Sorghum halapense) | Percent control (0 to 100) (Physalis angulata) | Percent control (0 to 100) (Ipomoea hederacea) | Percent control (0 to 100) (Sida spinosa) | Percent control (0 to 100) (Senna obtusifolia) | Percent control (0 to 100) (Abutilon theophrasti) | Percent control (0 to 100) (Ipomoea lacunosa) | Percent control (0 to 100) (Jaquemontia tamnifolia) | Percent control (0 to 100) (Conyza candensis) | Percent control (0 to 100) (Ipomoea coccinea) | Percent control (0 to 100) (Amaranthus palmeri) | Percent control (0 to 100) (Amaranthus hybridus) | Percent control (0 to 100) (Albizia julibrissin) | Percent control (0 to 100) (Eleusine indica) | Percent control (0 to 100) (Kyllinga squamulata) | Percent control (0 to 100) (Sesbania exaltata) | further results
CP(=O)(O)CCC(N)C(=O)O (stereo not shown) [Glufosinate, glufosinate] | 100% | 100% | 100% | 100% | 100% | 100% | 100% | 100% | 100% | 100% | 100% | 100% | 100% | 100% | 100% | 100% | 100% | 30% | 100% | Percent control (0 to 100) (Cyperus iria): 60%; Percent control (0 to 100) (Ipomoea quamoclit): 100%
O=C(O)CNCP(=O)(O)O [Glyphosate, glyphosate] | 80% | 50% | 60% | 100% | 99% | 60% | 60% | 70% | 100% | 60% | 40% | 0% | 50% | 35% | 90% | 25% | 90% | 95% | 75% | 
